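Compound exposure: 48 hours, 5 concentrations, 96-well plates. GI50 = concentration required for 50% inhibition of growth.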 Activity calls are given as the source filed them. Cut-off read from the data, not from the text of the source: active = GI50 up to about 1.1 µM and inactive = higher.
How the values were obtained:
Assay in all cases: NCI-60 cell line screen, 48 h
[1] = test system: NCI/ADR-RES
[2] = test system: T47D
[3] = test system: MDA-MB-435
[4] = test system: LOX IMVI
[5] = test system: MDA-MB-231
[6] = test system: Hs-578T
[7] = test system: HCT-15
[8] = test system: DU-145
[9] = test system: MCF7
[10] = test system: HCC 2998
[11] = test system: PC-3
[12] = test system: IGROV-1
[13] = test system: HOP-92
[14] = test system: HOP-62
[15] = test system: EKVX
[16] = test system: OVCAR-8
[17] = test system: DLD-1
[18] = test system: SNB-78
[19] = test system: HOP-18
[20] = test system: XF498

CCOC(=O)/C=C/CC(C)(C)COC(C)=O
GI50 [1]: > 10 µM (inactive) | GI50 [2]: > 10 µM (inactive) | GI50 [3]: > 10 µM (inactive) | GI50 [4]: 6.98 µM (inactive) | GI50 [5]: > 10 µM (inactive) | GI50 [6]: 0.406 µM (active) | GI50 [7]: > 10 µM | GI50 [8]: 7.43 µM (inactive) | GI50 [9]: > 10 µM (inactive) | GI50 [10]: > 10 µM (inactive) | GI50 [11]: > 10 µM (inactive)

O=C1C(Cl)N(c2cccc([N+](=O)[O-])c2)C1c1c[nH]c2ccccc12 (stereo not drawn)
GI50 [12]: 16.4 µM (inactive) | GI50 [13]: 19 µM (inactive) | GI50 [14]: 17.1 µM (inactive) | GI50 [15]: 28.4 µM (inactive) | GI50 [16]: 23.1 µM (inactive)

O=C1NP23(OCCO2)Oc2ccccc2C3(C(F)(F)F)O1 (stereo not drawn)
GI50 [17]: > 100 µM (inactive) | GI50 [4]: > 100 µM (inactive) | GI50 [18]: > 100 µM (inactive) | GI50 [7]: 72.3 µM | GI50 [16]: > 100 µM (inactive) | GI50 [19]: > 100 µM (inactive) | GI50 [20]: > 100 µM (inactive)

From ChEMBL document CHEMBL1201862, “PubChem BioAssay data set” (2004)
